Laboratory results reported in EP0113508A1, “Hydrophobic platinum compounds and their preparation” (Inco Research & Development Center, Inc., priority 1982, dated 1984).

Experiments:
[1] = tested on: L1210 leukemic cells; test: Chemotherapy of mice injected intravenously with L1210 leukemic cells; increase in life span (ILS) versus controls; type: in vivo; conditions: preliminary
Source text: To deliver the water insoluble cis Pt (II) analogues for chemotheraphy, they were encapsulated in sonicated phosphatidylcholine (PC) vesicles. To prepare these PC vesicles, both the cis Pt (II) analogue and PC had to be lyophilized from cyclohexane or benzene to give a dry powder for hydration by an aqueous medium. Simply drying down an organic solution of both the cis Pt (II) analogue and the PC gave unsatisfactory results upon hydration. The lyophilized samples were hydrated with physiological saline and then sonicated at 4°C using a W-375 Branson sonicator, under a nitrogen atmosphere. The sonicated samples were spun at 12,000 x G for 5 minutes to remove any titanium fragments from the sonicator probe and any undispersed lipid. […] Therefore all preparations were passed down a G-50 gel permeation column to separate any free cis Pt (II) from the hydrophobic cis Pt (II) analogue encapsulated in egg PC vesicles had better structural integrity and more uniform size distribution than the same analogues in soy PC vesicles. […] That is, the vesicles containing the cis Pt (II) analogues that had the lowest amounts of free phosphatidic acid, had the best structural stability and smaller size ranges. This is in direct contrast to the effect of phosphatidic acid in PC vesicles in the absence of the cis Pt (II) analogues.
The fractions from the G-50 column containing the encapsulated cis Pt (II) analogues were concentrated by ultrafiltration to the desired concentration for chemotheraphy studies.
Various compounds synthesized and incorporated in liposomal vesicles in the foregoing manner were employed in the chemotherapy of mice. The testing consisted of injections of 10 5 L1210 leukemic cells intravenuously into mice. One day later, a single -intravenous dose of the cis Pt (II) analogue in a sonicated PC vesicle was given. Increase in life span (ILS) was then measured relative to control animals who received only saline or PC vesicles alone as intravenous injections. Data are shown in Table I, together with data on some tests in which samples were not passed through a gel permeation column to remove free cis Pt (II), but an injectable preparation was made by the addition of "Tween" 80.

[2] = Toxicity (LD10) of the cis Pt (II) analogues in PC vesicles; type: in vivo, mice; conditions: passed through G-50 column, preliminary
[3] = Egg PC vesicle, passed through G-50 column, single intravenous dose one day after L1210 cells i.v.
[4] = Egg PC vesicle, passed through G-50 column, single intravenous dose
[5] = Soy PC vesicle, passed through G-50 column, single intravenous dose one day after L1210 cells i.v.
[6] = Soy PC vesicle, passed through G-50 column, single intravenous dose

Row | Substance | % ILS at Optimal Dose [1, 3] [%] | Optimal Dose [1, 4] [mg Pt/kg] | % ILS at Optimal Dose ([1]; Soy PC vesicle, samples not treated by G-50 column and Tween-80 added, single intravenous dose) [%] | LD10 ([2]; Egg PC vesicle) [mg Pt/kg] | % ILS at Optimal Dose [1, 5] [%] | Optimal Dose [1, 6] [mg Pt/kg] | LD10 ([2]; Soy PC vesicle) [mg Pt/kg]
1 | Dioleyl Phosphaditic Acid 1,2 Diaminocyclohexane Cis Pt (II) [Dioleyl phosphatidic acid DAC] | 83 | 39 | 0 | 58 |  |  | 
2 | Dipalmitoyl Phosphatidic Acid 1,2 Diaminocyclohexane Cis Pt (II) [Dipalmitoyl phosphatidic acid DAC] | 100 | 39 |  | 58 |  |  | 
3 | Egg Phosphaditic Acid 1,2 Diaminocyclohexane Cis Pt (II) [Egg phosphatidic acid DAC] | 50 | 26 |  | >58 |  |  | 
4 | Soy Phosphaditic Acid Bis Cyclohexylamine Cis Pt (II) |  |  |  |  | 16 | 155 | 500
5 | Soy Phosphatidic Acid Bis Cyclopentylamine Cis Pt (II) |  |  |  |  | 16 | 125 | 125
6 | Soy Phosphatidic Acid Bis Isoamylamine Cis Pt (II) |  |  |  |  | 8 | 155 | 345
